Patent US8507017B2, “Method for decreasing nicotine and other substance use in humans” (Arizona Health Consulting Group, LLC, priority 2003, dated 2013)

Legend:
[1] = target: T1, α4β2-nAChR (Homo sapiens, UniProt P17787+P43681); test: whole-cell patch-clamp recording of nicotine-induced currents, α4β2-nAChR expressed in SH-EP1 cells; format: cell-based; settings: for effect on α4β2-nAChR mediated currents (peak current response, steady-state component): 0.1 mM of each Magnoliidae compound, FIG. 6A
T1 construct: expressed in transfected cells; host or cells: SH-EP1 human epithelial cell line (nAChR-null)
Source text: (§1) In FIGS. 6-9, whole-cell patch-clamp recording techniques in voltage-clamp mode were used to detect changes in current. Conventional whole-cell current recording coupled with techniques for fast application and removal of agonist (9 channel multi-barrel pipette), were applied in this study. Briefly, cells plated on poly-lysine-coated 35-mm culture dishes were placed on the stage of an inverted microscope (Olympus iX7, Lake Success, N.Y.) and continuously superfused with standard external solution (2 ml/min). Glass microelectrodes (3-5 MΩ resistance between pipette and extracellular solutions) were used to form tight seals (>1 GΩ) on the cell surface until suction was applied to convert to conventional whole-cell recording.
(§2) Both pipette and whole current capacitance were minimized and the series resistance was routinely compensated to 80%. The access resistance before series resistance compensation was between 10-20 MΩ. Data acquisition and analyses were done using Pclamp8 (Axon Instruments), and results were plotted using Origin 5.0 (Microcal, North Hampton, Mass.).
Data usually were fit over the 10-90% period from inward current peak until agonist exposure was terminated (5-10 sec). The experimental data are presented as means±standard errors, and comparisons of different conditions were analyzed for statistical significance using the Student's t-tests. All experiments were performed at room temperature (22±1° C.). A pipette electrode solution comprising TrisPO4dibasic 110 milli-Molar (mM), Trisbase 28 mM, Ethylenediaminetetraacetate (EDTA) 11 mM, Magnesium Chloride (MgCl2) 2 mM, Calcium Chloride (CaCl2) 0.5 mM, and Sodium-Adenosine Triphosphate (Na-ATP) 4 mM, resulting in a pH of 7.3, was used.

[2] = target: T2, D1 receptors (Rattus norvegicus, UniProt P18901); settings: rats with unilateral nigral lesion (DA receptor super sensitivity in striatum); cited from earlier work
T2 construct: host or cells: rats with unilateral nigral lesion, in vivo (striatum)

[3] = target: T3, D2 receptor (Rattus norvegicus, UniProt P61169); settings: cited from earlier work
T3 construct: host or cells: normal rats, in vivo

[4] = test system: D1-type and D2-type DA receptor; settings: cited from earlier work
[5] = target: T4, (Homo sapiens, UniProt P30926+P43681); test: whole-cell patch-clamp recording of nicotinic responses, α4α4 nAChR subtype; format: cell-based; settings: THB 0.1 mM; nicotine 1.0 μM; FIG. 6B (2)
T4 construct: expressed in transfected cells; host or cells: SH-EP1 human epithelial cell line
Source text: as §1, §2
(§3) Data usually were fit over the 10-90% period from inward current peak until agonist exposure was terminated (5-10 sec). The experimental data are presented as means±standard errors, and comparisons of different conditions were analyzed for statistical significance using the Student's t-tests. […]

[6] = target: T5, α7-nAChRs (Homo sapiens, UniProt P36544); test: whole-cell patch-clamp recording of nicotinic responses, α7 nAChR subtype; format: cell-based; settings: THB 0.1 mM; nicotine 1.0 μM; FIG. 6B (3)
T5 construct: expressed in transfected cells; host or cells: SH-EP1 human epithelial cell line (stated generally, not specifically for α7)
Source text: as §1, §2, §3

T1 sequence (P43681 29-627 limits assumed): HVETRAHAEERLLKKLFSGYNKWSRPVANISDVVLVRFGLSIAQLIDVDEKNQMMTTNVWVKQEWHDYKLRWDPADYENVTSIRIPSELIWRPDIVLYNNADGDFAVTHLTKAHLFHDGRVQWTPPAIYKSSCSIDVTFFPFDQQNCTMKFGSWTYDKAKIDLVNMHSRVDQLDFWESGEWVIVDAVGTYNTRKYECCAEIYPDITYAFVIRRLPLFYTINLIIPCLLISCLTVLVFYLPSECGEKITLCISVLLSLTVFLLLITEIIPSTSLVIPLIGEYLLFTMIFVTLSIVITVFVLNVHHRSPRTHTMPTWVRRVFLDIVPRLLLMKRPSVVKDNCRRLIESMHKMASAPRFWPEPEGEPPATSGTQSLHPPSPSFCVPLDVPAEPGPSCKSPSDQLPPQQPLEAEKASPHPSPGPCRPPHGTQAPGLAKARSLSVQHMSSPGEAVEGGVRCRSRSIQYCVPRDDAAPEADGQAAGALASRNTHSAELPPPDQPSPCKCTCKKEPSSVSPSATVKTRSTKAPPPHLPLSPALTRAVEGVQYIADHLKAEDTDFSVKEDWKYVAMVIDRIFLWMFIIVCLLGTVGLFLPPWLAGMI
T1 sequence (P17787 26-502): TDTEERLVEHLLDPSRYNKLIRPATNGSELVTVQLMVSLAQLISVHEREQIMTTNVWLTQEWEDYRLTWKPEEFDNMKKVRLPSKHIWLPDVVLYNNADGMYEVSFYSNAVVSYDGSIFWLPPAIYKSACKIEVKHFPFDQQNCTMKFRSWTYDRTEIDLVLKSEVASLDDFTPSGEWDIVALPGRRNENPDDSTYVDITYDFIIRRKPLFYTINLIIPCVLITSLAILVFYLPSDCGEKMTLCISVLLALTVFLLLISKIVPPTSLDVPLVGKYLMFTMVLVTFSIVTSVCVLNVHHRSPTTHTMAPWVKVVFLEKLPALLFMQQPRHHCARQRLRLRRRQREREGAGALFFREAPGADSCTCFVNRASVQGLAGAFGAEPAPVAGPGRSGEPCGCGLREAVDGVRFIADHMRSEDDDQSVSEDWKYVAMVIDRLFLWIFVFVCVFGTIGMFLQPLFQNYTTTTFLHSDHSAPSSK
T4 sequence (P43681 27-627): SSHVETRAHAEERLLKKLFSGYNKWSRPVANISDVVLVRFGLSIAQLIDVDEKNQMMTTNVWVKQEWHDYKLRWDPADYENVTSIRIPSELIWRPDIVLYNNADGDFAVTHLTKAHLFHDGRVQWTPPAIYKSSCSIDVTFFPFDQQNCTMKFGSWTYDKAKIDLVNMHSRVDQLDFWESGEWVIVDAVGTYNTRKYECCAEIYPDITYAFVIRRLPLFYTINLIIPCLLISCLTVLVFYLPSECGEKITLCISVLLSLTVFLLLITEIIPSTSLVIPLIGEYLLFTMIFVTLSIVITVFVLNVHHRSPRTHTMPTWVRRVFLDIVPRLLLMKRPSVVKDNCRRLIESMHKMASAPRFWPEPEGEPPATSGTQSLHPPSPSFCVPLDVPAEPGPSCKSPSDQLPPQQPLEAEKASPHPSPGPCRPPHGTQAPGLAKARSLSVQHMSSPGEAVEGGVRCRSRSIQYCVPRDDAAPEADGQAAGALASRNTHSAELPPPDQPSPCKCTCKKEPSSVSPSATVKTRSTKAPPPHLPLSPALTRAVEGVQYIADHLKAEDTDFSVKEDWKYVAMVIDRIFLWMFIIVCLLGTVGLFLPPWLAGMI
T4 sequence (P30926 22-498): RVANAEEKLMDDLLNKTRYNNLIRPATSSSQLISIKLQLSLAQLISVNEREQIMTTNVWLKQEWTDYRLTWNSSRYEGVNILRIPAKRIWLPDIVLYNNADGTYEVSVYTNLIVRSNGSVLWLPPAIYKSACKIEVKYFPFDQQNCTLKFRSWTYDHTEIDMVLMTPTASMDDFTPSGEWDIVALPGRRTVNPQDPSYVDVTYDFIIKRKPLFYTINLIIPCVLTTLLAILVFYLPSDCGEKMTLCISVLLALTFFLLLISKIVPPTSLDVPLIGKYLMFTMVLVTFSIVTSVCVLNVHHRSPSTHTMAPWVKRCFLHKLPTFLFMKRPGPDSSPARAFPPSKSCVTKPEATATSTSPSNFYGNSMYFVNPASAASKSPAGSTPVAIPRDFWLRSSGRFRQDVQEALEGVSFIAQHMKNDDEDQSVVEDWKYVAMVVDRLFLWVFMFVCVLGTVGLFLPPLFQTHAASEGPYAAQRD
T3 sequence (P61169 whole entry): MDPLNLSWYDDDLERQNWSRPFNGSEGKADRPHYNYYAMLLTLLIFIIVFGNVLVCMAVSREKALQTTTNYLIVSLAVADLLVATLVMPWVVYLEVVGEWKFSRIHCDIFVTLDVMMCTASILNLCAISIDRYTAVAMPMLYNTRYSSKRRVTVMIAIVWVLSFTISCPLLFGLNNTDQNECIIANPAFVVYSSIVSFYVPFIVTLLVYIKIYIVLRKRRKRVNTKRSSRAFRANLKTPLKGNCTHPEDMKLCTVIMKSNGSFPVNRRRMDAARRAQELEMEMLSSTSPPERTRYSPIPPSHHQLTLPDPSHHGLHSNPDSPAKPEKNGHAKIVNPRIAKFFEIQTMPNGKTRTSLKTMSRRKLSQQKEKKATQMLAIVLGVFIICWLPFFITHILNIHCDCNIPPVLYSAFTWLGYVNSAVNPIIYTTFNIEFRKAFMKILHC
T2 sequence (P18901 whole entry): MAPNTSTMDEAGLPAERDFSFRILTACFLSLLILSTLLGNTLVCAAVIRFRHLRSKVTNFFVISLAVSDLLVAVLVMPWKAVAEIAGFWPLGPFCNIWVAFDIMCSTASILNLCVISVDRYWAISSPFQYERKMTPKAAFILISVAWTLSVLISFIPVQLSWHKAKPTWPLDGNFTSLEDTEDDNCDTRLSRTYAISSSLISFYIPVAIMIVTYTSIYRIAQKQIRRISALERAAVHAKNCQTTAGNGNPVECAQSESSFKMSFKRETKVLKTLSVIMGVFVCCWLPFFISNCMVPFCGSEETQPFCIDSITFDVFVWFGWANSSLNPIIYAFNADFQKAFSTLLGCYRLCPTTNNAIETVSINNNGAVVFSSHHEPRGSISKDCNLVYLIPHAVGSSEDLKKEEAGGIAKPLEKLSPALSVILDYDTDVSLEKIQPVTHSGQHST
T5 sequence (P36544 23-502): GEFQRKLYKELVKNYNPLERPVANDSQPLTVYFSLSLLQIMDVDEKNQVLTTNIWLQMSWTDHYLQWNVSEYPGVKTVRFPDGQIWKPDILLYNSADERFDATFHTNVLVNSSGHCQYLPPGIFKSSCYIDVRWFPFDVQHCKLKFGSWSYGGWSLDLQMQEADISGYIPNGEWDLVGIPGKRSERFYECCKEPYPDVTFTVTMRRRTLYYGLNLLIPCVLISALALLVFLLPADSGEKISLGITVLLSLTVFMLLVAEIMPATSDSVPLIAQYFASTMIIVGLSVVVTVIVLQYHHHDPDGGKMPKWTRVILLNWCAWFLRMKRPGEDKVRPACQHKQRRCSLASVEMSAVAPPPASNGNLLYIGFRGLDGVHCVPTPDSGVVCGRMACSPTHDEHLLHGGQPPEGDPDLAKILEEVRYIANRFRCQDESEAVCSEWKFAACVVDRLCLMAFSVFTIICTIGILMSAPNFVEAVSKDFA

| Structure (SMILES) | effect on α4β2-nAChR mediated currents (peak current response, steady-state component) [1] | DA receptor characteristics in rats with unilateral nigral lesion [2] | DA receptor characteristics in normal rats [3] | effect on D1-type and D2-type DA receptor binding [4] | acute desensitization of nicotine-induced currents ([1]; THB 30 μM, holding potentials −40 mV and −80 mV, FIG. 9A-9B) | effect on nicotinic response mediated by α4β2 subtype ([1]; THB 0.1 mM, nicotine 1.0 μM, FIG. 6B (1)) | effect on peak (Ip) and steady-state (Is) components of nicotinic responses at different THB concentrations ([1]; THB 1.0, 10, 100 μM, nicotine 1.0 μM, FIG. 7A-7C) | voltage dependence of suppression of nicotinic response ([1]; depending on holding potential VH) | effect on nicotinic response mediated by α4α4 subtype [5] | effect on nicotinic response mediated by α7 subtype [6] |
| --- | --- | --- | --- | --- | --- | --- | --- | --- | --- | --- |
| COc1cc2c(cc1OC)[C@@H]1Cc3ccc(OC)c(OC)c3CN1CC2 [l-THP, l-Tetrahydropalmatine] | inhibition of nAChR function | – | – | – | – | – | – | – | – | – |
| COc1cc2c(cc1O)[C@@H]1Cc3ccc(O)c(OC)c3CN1CC2 [l-SPD, l-Stepholidine] | inhibition of nAChR function | acts on D1 receptors as an agonist | characteristics of D2 receptor antagonist | – | – | – | – | – | – | – |
| COc1ccc2c(c1OC)CN1CCc3cc4c(cc3C1C2)OCO4 (stereo not drawn) [THB, Tetrahydroberberine] | inhibition of nAChR function | – | – | equipotent effect | accelerates acute desensitization | inhibition of each nAChR subtype function | concentration-dependent inhibition | suppressed nicotinic response depending on VH | inhibition of each nAChR subtype function | inhibitory effect occurs more predominantly in α7-nAChRs |
